{"source": "patent US11845807B2", "about": "“Method and carrier complexes for delivering molecules to cells” (priority 2003, dated 2023)", "key": {"cells in culture": {"tested_on": "cells in culture", "details": "similar studies, cell line not stated"}, "Huh7 cells [1]": {"tested_on": "Huh7 cells", "assay": "GFP uptake into cells on co-incubation with peptide or peptide-SMCC conjugate", "assay_type": "cell-based", "details": "3 μg GFP + 40 μl peptide, 60 min at 37° C., then 24 hours; versus GFP alone", "protocol": "Carrier complex formation by physical mixing of protein and [Dmt1]DALDA-SMCC conjugate. The [Dmt^1]DALDA-SMCC conjugate was prepared as described above. The protein molecules (i.e. green fluorescent protein, GFP) were mixed with the [Dmt^1]DALDA-SMCC conjugate for 15 min at room temperature before use in cellular uptake studies.\nAssay for protein uptake into cells when co-incubated with [Dmt1]DALDA-SMCC conjugate. […] 2 ml of cell medium was then added to cells which were incubated for an additional 24 hours in the cell culture incubator. After incubation, cells were washed four times in cell medium and GFP retained in living cells was visualized, by confocal laser scanning microscopy. Excitation was performed at 340 nm and emission was measured at 520 nm.\n2 ml of cell medium was then added to cells and incubated for an additional 24 hours in cell culture incubator. After incubation, cells were washed four times in cell medium and GFP retained in living cells was visualized by confocal laser scanning microscopy. Excitation was performed at […] and emission was measured at […]."}, "[2]": {"tested_on": "Caco-2, SH-SY5Y, HEK293, and CRFK cells", "details": "250 nM, 1 h at 37° C., acid-wash", "description": "Assay for Peptide Uptake. […] Monolayers of cells were grown on 12-well plates (5×10^5 cells/well) coated with collagen for 3 days. […] At the end of the incubation period, cells were washed four times with HBSS, and 0.2 ml of 0.1 N NaOH with 1% SDS was added to each well. The cell contents were then transferred to scintillation vials and radioactivity was counted. […] Before cell lysis, cells were incubated. with 0.2 ml of 0.2 M acetic acid/0.05 M NaCl for 5 min on ice.\nAn acid-wash step was included to distinguish internalized radioactivity (acid-resistant) from surface-bound radioactivity (acid-sensitive)."}, "N2A cells": {"tested_on": "N2A cells", "assay": "Cell viability, MTT assay, N2A cells", "assay_type": "cell-based", "details": "1 nM to 10 μM, 24 h"}, "peptidase": {"tested_on": "peptidase", "details": "Szeto et al., J. Pharmacol. Exp. Ther., 2001; cited from earlier work"}, "[3]": {"assay": "Peptide translocation across Caco-2 monolayers (Transwell, apical-to-basolateral)", "assay_type": "in vitro ADME", "details": "human, Caco-2; apical-to-basolateral; read-out: apparent permeability coefficient", "protocol": "(§1) Assay for Peptide Translocation across Caco-2 Monolayers. Monolayers of Caco-2 cells were prepared as described previously (Irie et al., J. Pharmacol. Exp. Ther. 2001, 298: 711-717), Caco-2 cells (2×10^5) were seeded on microporous membrane filters (24 mm, […]) inside Transwell cell culture chambers (Corning Glassworks, Corning, N.Y.). Each Transwell chamber was filled with 1.5 ml of medium in the apical compartment and 2.5 ml in the basolateral compartment. The cell monolayers were given fresh medium every 1 to 2 days and were used on day 28 for transport experiments.\n(§2) The apparent permeability coefficient was calculated according to the following equation: Papp=X/(t·A·Co), where X/t is the rate of uptake in the receiver compartment, A is the diffusion area (4.72 cm^2), and Co is the initial concentration in the donor compartment."}, "Caco-2 monolayer": {"tested_on": "Caco-2 monolayer", "assay": "Peptide translocation across Caco-2 monolayers (Transwell, apical-to-basolateral)", "assay_type": "in vitro ADME", "details": "60 min", "protocol": "as §1, §2"}, "SH-SY5Y cells": {"tested_on": "SH-SY5Y cells", "assay": "Cell viability, MTT assay, SH-SY5Y cells", "assay_type": "cell-based", "details": "1 nM to 10 μM, 24 h"}, "Caco-2 cells [4]": {"tested_on": "Caco-2 cells", "assay": "Cell viability, MTT assay, Caco-2 cells", "assay_type": "cell-based", "details": "1 nM to 10 μM, 24 h"}, "[5]": {"tested_on": "cell surface receptors, membranes prepared from Caco-2 cells", "assay": "Radioligand binding assay using Caco-2 cell membranes", "details": "15-960 pM radioligand, 60 min at 25° C.; listed as [^3H][Dmt^1]DALDA", "protocol": "Radioligand Binding Assay Using Cell Membranes. […] After 4 days of culture, cells were washed two times with PBS buffer and then scraped off. Cells were centrifuged at 500 g for 5 min and the pellet stored at −80° C. Cells were homogenized in ice-cold 50 mM Tris-HCl buffer (5 μg/ml leupeptin, 2 μg/ml chymostatin, 10 μg/ml bestatin, and 1 mM EGTA, pH 7.4). The homogenate was centrifuged at 36,000 g for 20 min. The pellets were resuspended with 50 mM Tris-HCl buffer. […] Free radioligand was separated from bound radioligand by rapid filtration through GF/B filters (Whatman, Maidstone, UK) with a cell harvester (Brandel Inc., Gaithersburg, Md.). Filters were washed three times with 10 ml of Tris buffer, and radioactivity was determined by liquid scintillation counting. Binding affinities (Kd) and receptor number (Bmax) were determined using nonlinear regression (GraphPad Software, San Diego, Calif.)."}, "Caco-2 cells [6]": {"tested_on": "Caco-2 cells", "assay": "Assay for peptide uptake in Caco-2 cells", "assay_type": "cell-based", "excerpt": "Assay for Peptide Uptake."}, "Caco-2 cells [7]": {"tested_on": "Caco-2 cells", "assay": "Assay for peptide efflux from Caco-2 cells", "assay_type": "cell-based", "protocol": "Assay for Peptide Efflux from CaCo-2 Cells. […] Cells were then washed four times with 1 ml of ice-cold incubation solution to terminate uptake and then incubated with 0.5 ml of MEM for 1 h at either 37 or 4° C. to measure the efflux of peptide from cells to the incubation medium. The amount of radioactivity was determined in cell lysates and in the incubation medium."}, "Huh7 cells [8]": {"tested_on": "Huh7 cells", "assay": "Assay of apoptosis (Hoechst dye)", "assay_type": "cell-based", "details": "50 μl of 1 mM conjugate, 24 hours at 37° C., versus PBS control", "protocol": "Assay of apoptosis. Apoptosis was determined with the use of Hoechst dye (Molecular Probes, Eugene, Oreg.) for staining apoptotic nuclei. The Hoechst dye was loaded to cell cultures and incubated for 15 min. Excessive Hoechst dye was removed by washing cells with cell medium. (free of pH indicator) the cells examined using fluorescent microscopy (excitation at 350 nm and emission at 461 nm).\nAfter the incubation, 1 ml of Hoechst dye (Molecular Probes, Eugene, Oreg.) for staining apoptotic nuclei were added to cells and incubated for additional 15 min. Excessive Hoechst dye was removed by washing cells with cell medium (free of pH indicator) and cells treated with [Dmt^1]DALDA-SMCC conjugate were compared with control cells using fluorescent microscopy (excitation at 350 nm and emission at […]). Apoptosis is indicated by concentration of fluorescence in the nuclei."}, "Huh7 cells [9]": {"tested_on": "Huh7 cells", "assay": "Cell viability by trypan blue uptake", "assay_type": "cell-based", "details": "50 μl of 1 mM conjugate in 1 ml medium, 24 hours at 37° C.", "protocol": "Trypan blue is only taken by cells with increased membrane permeability. Huh7 cells (1×10^6) were washed three times in DMEM, and 1 ml of fresh medium, or media containing 50 μl of 1 mM [Dmt^1]DALDA-SMCC conjugate, [D-Arg-Dmt-Lys-Phe-NH2]-SMCC conjugate, or [Phe^1]DALDA-SMCC conjugate, and incubated at 37° C. for 24 hours at 5% CO2. Cells were then washed three times with DMEM, and 1 ml of 0.4% trypan blue was added to the cells for 2 minutes. Excessive dye was removed by washing cells in cell medium and the cells were examined by light microscopy."}, "Huh7 cells [10]": {"tested_on": "Huh7 cells", "assay": "RNA uptake into cells when mixed with peptide-SMCC conjugate", "assay_type": "cell-based", "details": "for increase of uptake of RNA oligo on co-incubation: 11-base RNA oligo", "protocol": "Carrier complex formation by physical mixing of RNA and [Dmt^1]DALDA-SMCC conjugate. The [Dmt^1]DALDA-SMCC conjugate was prepared as described above. The RNA molecules were mixed with the [Dmt^1]DALDA-SMCC conjugate in PBS for 15 min at room temperature before use in cellular uptake studies.\nAssay for uptake of RNA uptake into cells when mixed with [Dmt1]DALDA-cross-linker conjugate. Huh7 cells (1×10^6 cells/well) were washed with DMEM and then incubated with 1.0 ml DMEM containing [^32P]RNA oligo alone or with 40 μl [Dmt^1]DALDA-SMCC conjugate, for 60 min at 37° C. or 4° C. Cells were then washed four times in DMEM and one time in sodium acetate solution to reduce nonspecific binding before incubated in lysis buffer for 30 min and radioactivity determined in the cell lysate.\nThe carrier complex was formed by physical mixing of RNA and [Dmt^1]DALDA-SMCC conjugate. […] A single strand 11-mer [^32P]RNA oligo was mixed with the [Dmt^1]DALDA-SMCC conjugate for 15 min at room temperature before use in cellular uptake studies.\nHuh7 cells (1×10^6 cells/well) were washed with DMEM and then incubated with 1.0 ml DMEM containing the [^32P]RNA oligo (100,000 cpm) alone or with […] [Dmt^1]DALDA-SMCC conjugate at 37° C. or 4° C. Cells were then washed four times in DMEM and one time in sodium acetate solution to remove nonspecific binding before incubated in lysis buffer for 30 min and retained radioactivity determined."}}, "note": "“Also recorded” adds a separate entry of the source. Square brackets hold non-standard residues; d marks the D form. Peptide text beside a SMILES is read from it. Dmt = Cc1cc(O)cc(C)c1C[C@H](N)C(=O)O"}
{"smiles": "Cc1cc(O)cc(C)c1C[C@H](NC(=O)[C@H](N)CCCNC(=N)N)C(=O)N[C@@H](CCCCN)C(=O)N[C@@H](Cc1ccccc1)C(N)=O", "note": "[[D-Arg-Dmt-Lys-Phe-NH2], D-Arg-2′6′Dmt-Lys-Phe-NH2] (H-[dR][Dmt]KF-NH2)", "values": [{"measurement": "toxicity to cells / cell viability", "setting": "cells in culture", "result": "no effect on cell viability"}]}
{"smiles": "Cc1cc(O)cc(C)c1C[C@H](N)C(=O)N[C@H](CCCNC(=N)N)C(=O)N[C@@H](Cc1ccccc1)C(=O)N[C@@H](CCCCN)C(N)=O", "note": "[[Dmt^1]DALDA, 2′,6-Dmt-D-Arg-Phe-Lys-NH2]", "values": [{"measurement": "uptake of GFP into cells (green fluorescence)", "setting": "Huh7 cells [1]", "result": "moderately increased green fluorescence within the cell cytoplasm"}, {"measurement": "internalization (acid-resistant radioactivity) in different cell lines", "setting": "[2]", "result": "taken up extensively in all cell types"}, {"measurement": "cell viability (MTT assay)", "setting": "N2A cells", "result": "no effect on cell viability; also recorded: not toxic to cells in culture"}, {"measurement": "resistance against peptidase degradation", "setting": "peptidase", "result": "resistant against peptidase degradation"}, {"measurement": "Papp A→B at 0.2 μM", "setting": "[3]", "result": 12.4, "unit": "×10⁻⁶ cm/s"}, {"measurement": "percentage translocated from the apical to the basolateral side", "setting": "Caco-2 monolayer", "result": 10.4, "unit": "%"}, {"measurement": "cell viability (MTT assay)", "setting": "SH-SY5Y cells", "result": "no effect on cell viability"}, {"measurement": "cell viability (MTT assay)", "setting": "Caco-2 cells [4]", "result": "no effect on cell viability"}, {"measurement": "specific binding to Caco-2 membranes", "setting": "[5]", "result": "No high-affinity specific binding was observed"}, {"measurement": "concentration dependence of uptake", "setting": "Caco-2 cells [6]; 1 μM-3 mM, 1 h at 37° C.", "result": "concentration-dependent over a wide range of concentrations"}, {"measurement": "effect of verapamil (P-glycoprotein inhibitor) on cellular uptake", "setting": "Caco-2 cells [6]; 100 μM verapamil", "result": "no effect"}, {"measurement": "increase of uptake by DEPC", "setting": "Caco-2 cells [6]; 0.2 mM DEPC", "result": 34, "unit": "fold"}, {"measurement": "effect of 4° C. on uptake", "setting": "Caco-2 cells [6]; 4° C. versus 37° C.", "result": "slower compared with 37 °C"}, {"measurement": "uptake at 4° C. by 45 min", "setting": "Caco-2 cells [6]; 4° C., 45 min, compared with 37° C.", "result": 76.5, "unit": "%"}, {"measurement": "uptake at 4° C. by 1 h", "setting": "Caco-2 cells [6]; 4° C., 1 h, compared with 37° C.", "result": "86,3%"}, {"measurement": "time at which peptide was first observed in cell lysate", "setting": "Caco-2 cells [6]; 37° C., 250 nM", "result": 5, "unit": "min"}, {"measurement": "fraction resistant to acid-wash (presumed inside the cell)", "setting": "Caco-2 cells [6]; 1 h at 37° C., acid-wash before lysis", "result": 80.8, "unit": "%"}, {"measurement": "total amount recovered in cell lysate, of the total drug", "setting": "Caco-2 cells [6]; after 1-h incubation, 37° C.", "result": "about 1%"}, {"measurement": "effect of pH on uptake", "setting": "Caco-2 cells [6]; pH varied from 4.0 to 7.4, 1 h at 37° C.", "result": "unchanged"}, {"measurement": "effect of verapamil (P-glycoprotein inhibitor) on efflux", "setting": "Caco-2 cells [7]; 100 μM verapamil", "result": "not affected"}, {"measurement": "effect of DEPC on efflux", "setting": "Caco-2 cells [7]; 0.2 mM DEPC, 10 min at 25° C. before loading", "result": "decreased"}, {"measurement": "effect of temperature (4° C.) on efflux", "setting": "Caco-2 cells [7]; 4° C. versus 37° C.", "result": "temperature had a significant effect"}, {"measurement": "peptide effluxed into medium", "setting": "Caco-2 cells [7]; preloaded 1 h, 1 h efflux at 37° C.", "result": 80, "unit": "%"}]}
{"smiles": "Cc1cc(O)cc(C)c1C[C@H](N)C(=O)N[C@H](CCCNC(=N)N)C(=O)N[C@@H](Cc1ccccc1)C(=O)N[C@@H](CCCCNC(=O)C1CCC(CN2C(=O)C=CC2=O)CC1)C(N)=O", "note": "(stereo partly drawn) [[Dmt^1]DALDA-SMCC conjugate]", "values": [{"measurement": "apoptosis (Hoechst staining of nuclei)", "setting": "Huh7 cells [8]", "result": "did not induce apoptosis; also recorded: does not induce apoptosis"}, {"measurement": "uptake of GFP into cells (green fluorescence)", "setting": "Huh7 cells [1]", "result": "even greater uptake of GFP; also recorded: enhances uptake of green fluorescent protein"}, {"measurement": "trypan blue uptake (cell viability)", "setting": "Huh7 cells [9]", "result": "No increase in trypan blue uptake"}, {"measurement": "increase of uptake of RNA oligo on co-incubation", "setting": "Huh7 cells [10]; 15 min at 37° C.", "result": 10, "unit": "fold"}, {"measurement": "increase of uptake of RNA oligo on co-incubation", "setting": "Huh7 cells [10]; 60 min at 37° C.", "result": "~20", "unit": "fold"}, {"measurement": "increase of uptake of 11-mer RNA on co-incubation", "setting": "Huh7 cells [10]; FIG. 13 experiment, 60 min at 37° C.", "result": 22, "unit": "fold"}]}
